Test [1] concerns HT29-MTX-e12 cells. Description: Azide group expression in goblet cell-like cells, DBCO-Cy5.5 fluorescence imaging. The test is classed as cell-based. The following applies: 100 μM, 24 hours; DBCO-Cy5.5 labeling. The text has this:
(§1) In order to evaluate the introduction of an azide group (—N3) (i.e., a functional group for bioorthogonal click chemistry) to the intestinal mucosa, HT29-MTX-e12 cells, which are goblet cell-like cells in vitro, were used. An azide group was introduced to the cell surface through glycan manipulation using tetraacetylated N-azidoacetyl-D-mannosamine (ManNAz) and tetraacetylated N-azidoacetyl-D-galactosamine (GalNAz), which are derivatives of mannosamine and galactosamine, which is a molecule used for mucosal formation. Specifically, HT29-MTX-e12 cells were cultured for 24 hours in DMEM medium containing 100 μM ManNAz or GalNAz. The azide group introduced was subjected to fluorescent labeling by culturing for 30 minutes in a medium containing 10 μM DBCO-Cy5.5, washed twice with physiological saline at 4° C., reacted with 20 μM Hoechst 33342 for 15 minutes, and then the cell nuclei were stained and observed.
In the case of introduction of an azide group into the intestinal mucosa, after introduction of an azide group into the HT29-MTX-e12 goblet cell-like cell line by the method of Example 2, the binding ability with DBCO-Cy5.5 was evaluated.

Test [2] relates to HT29-MTX-e12 cells. Description: Western blot analysis of azide group introduced into goblet cell-like cells. The class given is cell-based. The following applies: various concentrations, 24 hours. The protocol: For quantitative evaluation of an azide group according to the precursor treatment concentration, HT29-MTX-e12 cells in 10 mL medium without sugar or containing various concentrations of GalNAz or ManNAz were inoculated onto 60 mm×15 mm polystyrene tissue culture plates at a density of 2×10^6 cells per plate, and cultured for 24 hours. The cells were obtained after washing with PBS (pH 7.4), lysed in a cell lysis solution (50 mM Tris, pH 7.2, 150 mM NaCl, 1% Triton X-100, 200 ng/mL phenylmethylsulfonyl fluoride) containing phosphatase inhibitor cocktail (St. Louis, Mo., USA), and 10 μL of phosphine-PEG-biotin (Waltham, Mass., Thermofisher Scientific) per 100 μL of the lysate was reacted at room temperature for 12 hours. Then, after subjecting the resultant to electrophoresis on 10% SDS polyacrylamide gel to be transferred to Immobilon P membrane (Millipore Corporation, Billerica, Mass., USA), treated with 1,000:1 diluted HRP-streptavidin (Waltham, Mass., Thermofisher Scientific) at room temperature for 2 hours, and confirmed by developing on Pierce™ECL Western blotting substrate (Waltham, Mass., Thermofisher Scientific).
On the technique in general: In western blotting, separated proteins are transferred to a membrane and probed.

Test [3] relates to HT29-MTX-e12 cells. Description: Binding of DBCO-Bac. to azide-introduced goblet cell-like cells (fluorescence images, flow cytometry). The settings on record: for binding ability to DBCO-Bac. increase compared to the control group: cells treated with 100 μM precursor; for green fluorescence (distribution of DBCO-Bac. in the culture dish) compared to the control group: low-magnification fluorescence imaging. The class given is cell-based.
Excerpt: as §1
When DBCO-Bac. is treated on goblet cell-like cells into which an azide group has been introduced in Experimental Example 3, red fluorescence representing an azide group and green fluorescence representing DBCO-Bac. appear clearly as shown in FIG. 5A.
(In general: Flow cytometry measures light scatter and fluorescence of single cells or particles in a stream.)

For test [4], the system named is HT29-MTX-e12 cells. Description: Binding of DBCO-Bac. in 3-dimensional intestinal mucosal simulation model. The test is classed as cell-based. The settings on record: 100 μM precursor; 3D fluorescence image. The protocol:
To evaluate the binding ability of DBCO-Bac. to the mucosa in a three-dimensional environment, mucosal formation of HT29-MTX-e12 cells was promoted through N-[N-(3,5-difluorophenacetyl)-L-alanyl]-S-phenylglycine t-butyl ester (DAPT) stimulation, and a 3D intestinal mucosal simulation model was prepared using the same. HT29-MTX-e12 cells were inoculated in DMEM medium and cultured for 24 hours, treated with 20 μM DAPT 4 times at intervals of once every 2 days, and from the second DAPT treatment, treated with the culture medium containing 100 μM GalNAz or ManNAz three times at intervals of once every two days. Then, the resultant was treated with DBCO-Bac. at a concentration of 5×10^8/mL.
Additionally, in order to evaluate the binding ability of DBCO-Bac. to the intestinal mucosa in a three-dimensional environment, a three-dimensional intestinal mucosal simulation model was prepared using HT29-MTX-e12 cells in which mucosal formation was promoted through DAPT stimulation by the method of Example 4 above.

Test [5] has as its system mouse intestinal mucosa. Kind of test: Azide group expression in mouse intestinal mucosa after oral administration (DBCO-Cy5.5 staining). The class given is in vivo, mice. The settings on record: 5 mg per animal, duodenum, jejunum, ileum, colon. The protocol:
To confirm the expression level and expression time of an azide group in the intestinal mucosa, GalNAz or ManNAz was orally administered to mice, and the expression level of an azide group in the intestinal mucosa was evaluated through the binding ability with DBCO-Cy5.5. 5 mg of GalNAz or ManNAz was orally administered per animal, the intestinal tissue was divided into 4 parts (duodenum, jejunum, ileum, and colon) of the small intestine and extracted after 12 hours, 24 hours, 36 hours, and 48 hours at intervals of 12 hours, and dipped in 20 μM of each DBCO-Cy5.5 solution and stained.
In the case of introducing an azide group into the mouse intestinal mucosa, after oral administration of GalNAz or ManNAz to mice by the method of Example 5 above, the expression level of an azide group in the intestinal mucosa was evaluated through the binding ability with DBCO-Cy5.5.

Test [6] deals with mouse intestinal mucosa. Description: Bac. remaining in mouse intestinal mucosa after simultaneous treatment with two DBCO-modified bacterial groups. The test is classed as in vivo, mice. The settings on record: oral precursor, simultaneous treatment with both DBCO-modified bacteria. The protocol:
In addition, in order to evaluate the intestinal mucosal binding ability of DBCO-Bac., GalNAz or ManNAz per animal was orally administered to 5 mg mice, and 24 hours thereafter, DBCO-Bac. was administered at a concentration of 10^9/mL.
In order to confirm whether bioorthogonal click chemistry of DBCO and an azide group is applicable when several groups of bacteria were administered at once as in probiotics, GalNAz and ManNAz were each orally administered to mice by the method of Example 5, and simultaneously treated with Bifidobacterium longum modified with DBCO and Lactobacillus acidophilus modified with DBCO, and the fluorescence value of Bac. remaining in the intestinal mucosa was confirmed.

For “tetraacetylated N-azidoacetyl-D-mannosamine [ManNAz]”, the “red fluorescence (azide group) in HT29-MTX-e12 cells” value in the test on HT29-MTX-e12 cells [1] is “red fluorescence appeared”. Also, in the test on HT29-MTX-e12 cells [2], the “generation of an azide group” value was “increased depending on the concentration”. In the test on HT29-MTX-e12 cells [3], the “binding ability to DBCO-Bac. increase compared to the control group” value was “about 500 times” and the “green fluorescence (distribution of DBCO-Bac. in the culture dish) compared to the control group” value was “increased”. The “green fluorescence (binding ability to DBCO-Bac.) compared to the control group” value with HT29-MTX-e12 cells [4] was “increased significantly”. The “time after oral administration at which fluorescence intensity (azide expression) was strongest” value with mouse intestinal mucosa [5] is recorded as “about 24 hours”. The “amounts of DBCO-modified Bifidobacterium longum and Lactobacillus acidophilus remaining in the intestinal mucosa compared to the control group” value in the test on mouse intestinal mucosa [6] was “significantly higher”.
Take `CC(=O)OCC1OC(OC(C)=O)C(NC(=O)CN=[N+]=[N-])[C@@H](OC(C)=O)[C@H]1OC(C)=O` (stereo partly drawn) [GalNAz, tetraacetylated N-azidoacetyl-D-galactosamine]: the “red fluorescence (azide group) in HT29-MTX-e12 cells” value in the test on HT29-MTX-e12 cells [1] was “red fluorescence appeared”. In the test on HT29-MTX-e12 cells [2], the “generation of an azide group” value is on record as “increased depending on the concentration”. Besides, in the test with HT29-MTX-e12 cells [3], the “binding ability to DBCO-Bac. increase compared to the control group” value is given as “about 400 times” and the “green fluorescence (distribution of DBCO-Bac. in the culture dish) compared to the control group” value is given as “increased”. Moreover, in the test on HT29-MTX-e12 cells [4], the “green fluorescence (binding ability to DBCO-Bac.) compared to the control group” value is “increased significantly”. Further, in the test on mouse intestinal mucosa [5], the “time after oral administration at which fluorescence intensity (azide expression) was strongest” value is recorded as “about 24 hours”. For the same compound, the “amounts of DBCO-modified Bifidobacterium longum and Lactobacillus acidophilus remaining in the intestinal mucosa compared to the control group” value with mouse intestinal mucosa [6] is “higher”.
